# Test results: US6200989A, “2-alkylidene hydroxycumaranone derivatives” (Hoffmann-La Roche Inc., priority 1997, dated 2001)
# Biological target: uPAR (Homo sapiens, UniProt Q03405)
# Test: ELISA test: inhibition of human urokinase (uPA) binding to its specific receptor uPAR
# Conditions: test substance preincubated 30 min at room temperature
# Method: Compounds of the invention were tested (ELISA test) as inhibitors of human urokinase (uPA) binding to its specific receptor uPAR mAk (BIO-R4), according to the procedure described in Biol. Chem. Hoppe-Seyler, 376, 587-94 (1995) by Rettenberger et al. The assays are performed in Microtiterplates (96 wells). The following solutions are used:
# washing buffer PBS-buffer (without Mg^2+ and Ca^2+)+0.05% Tween 20;
# incubation buffer (IP): 1% skimmed milk powder in PBS-buffer (without Mg^2+ and Ca^2+);
# BIO-R4 solution: 50 ng/well (0.5 (g/ml; 100 (l/well) in IP;
# uPAR solution: 3 ng/well (30 ng/ml; 100 (l/well) in PBS-buffer (without Mg^2+ and Ca^2+);
# blocking solution: 1% skimmed milk powder in washing buffer (dissolved at 37° C.);
# uPA solution: 0.25 ng/well (5 ng/ml; 50 (l/well) in IP.
# Detect ion solutions (per microtiterplate):
# (1) 6 ml (100 mM Tris-Cl pH 7.2+0.15% Tween 80)+1.5 ml (10 (g) Plasminogen in aqua bidest;
# (2) 6 ml (100 mM Tris-Cl pH 7.2+0.15% Tween 80)+1.5 ml (7.5 mg) chromozyme PL in aqua bidest.
# The detection solution must be continuously stirred. Testing substances: the testing substances are dissolved in DMSO. They are used in the test system with a highest concentration of 100 (g/ml. The solutions are prepared using PBS.
# Three controls are performed:
# a) positive control: using 2% DMSO in PBS;
# b) negative control: assay without receptor;
# 1) inhibition (IC95 at 0.25 mg/ml) with dextranesulfate (MW=500.000);
# 2) inhibition (IC90 at 1 (g/ml) with inactivated uPA (175 (g/ml).
# Incubation is done as follows:
# Each well is incubated by 100 (1 of BIO-R4 (c=0.5 (g/ml) for 1 hour at room temperature under shaking. After washing three times with the washing buffer, each well is incubated for 1 hour (37° C.) with 200 (l/well blocking solution. After triple washing each well is incubated for 1 hour at room temperature under shaking with 100 (l/well uPAR (c=30 ng/ml), then the wells are washed again three times with the washing buffer. The testing substance solution and the control solution, respectively, are added (50 (l/well) and are incubated for 30 minutes at room temperature under shaking. An additional 50 (l of uPA solution (c=2.5 ng/ml) are added. After 1 hour at room temperature a triple washing is performed.
# For detection, the following procedure is used:
# Incubation with 50 (l each of detection solution (1) and (2) at room temperature. After 20 minutes a yellow colour will be visible (the positive control reads an extinction of 1 after 45-60 minutes). The detection is performed at 405 nm (reference is 490 nm) using a Dynatech MR 7000 ELISA reader. To obtain the percentage of inhibition the following formula is used (E stands for extinction): [formula]
# uPAR, sequence (Q03405 23-305 limits assumed): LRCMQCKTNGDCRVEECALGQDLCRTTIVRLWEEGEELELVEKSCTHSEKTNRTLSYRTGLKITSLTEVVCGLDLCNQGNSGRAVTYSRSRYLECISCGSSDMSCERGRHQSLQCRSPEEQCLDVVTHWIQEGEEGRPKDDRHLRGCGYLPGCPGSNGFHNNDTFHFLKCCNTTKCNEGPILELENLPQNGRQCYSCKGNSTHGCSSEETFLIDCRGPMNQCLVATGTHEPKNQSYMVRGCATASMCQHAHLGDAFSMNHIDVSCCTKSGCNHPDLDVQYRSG
row,IC50,SMILES
1,91.2 nM,CC(C)=C1Oc2cccc(OCCCN3CCC(NC(=O)c4ccc(Cl)c(S(N)(=O)=O)c4)CC3)c2C1=O [4-(3-(4-(3-aminosulfonyl-4-chlorobenzamido)piperidin-1yl)propoxy)-2-isopropylidenecumaran-3-one]
2,104 nM,CC(C)=C1Oc2cccc(OCCOCCN3CCC(NC(=O)c4ccc(F)cc4)CC3)c2C1=O [4-[(2-(2-(4-(4-fluorobenzamido)piperidin-1-yl)ethyl)oxy)ethyloxy]-2-isopropylidenecumaran-3-one]
3,> 19.4 nM,"CC(C)=C1Oc2cccc(OC/C=C/CN3CCC(NC(=O)c4ccc(Cl)c(Cl)c4)CC3)c2C1=O [(E)-4-(4-(4-(3,4-dichlorobenzamido)piperidin-1-yl)-2-butenoxy)-2-isopropylidenecumaran-3-one]"

# Continued, compound first:
row,SMILES,IC50
1,"CC(C)=C1Oc2cccc(OC/C=C\CN3CCC(NC(=O)c4ccc(Cl)c(Cl)c4)CC3)c2C1=O [(Z)-4-(4-(4-(3,4-dichlorobenzamido)piperidin-1-yl)-2-butenoxy)-2-isopropylidenecumaran-3-one]",> 19.4 nM
2,"CC(C)=C1Oc2cccc(OCCCCN3CCC(NC(=O)c4ccc(Cl)c(Cl)c4)CC3)c2C1=O [4-(4-(4-(3,4-dichlorobenzamido)piperidin-1-yl)butoxy)-2-isopropylidenecumaran-3-one]",> 19.3 nM
